In EP1997826A2, “Synthetic ligands for immunoglobulins and pharmaceutical compositions containing them” (Tecnogen S.p.A., priority 2007, dated 2008):

Key:
[1] = system: immunoglobulin fraction of the raw serum; assay: affinity chromatography of raw rabbit serum on peptide immobilized on CH-Sepharose-4B; format: binding; details: 50 mM Bis-Tris pH 6.5, elution with acetic acid 0.1 M pH 3.0, albumin eluted to the dead volume
Procedure: The peptide of formula (IB) prepared in Example 1 (10 mg) was dissolved in 5 ml of aqueous solution of sodium bicarbonate 0.1 M, NaCl 0.5 M, pH 8.5 and then added to 0.5 g of activated resin CH-Sepharose-4B (Amersham Biosciences, Uppsala, Sweden, Cat. No. 17-0490-01), a preactivated support for affinity chromatography for the direct coupling of peptides and proteins. The suspension was stirred for 24 hours and the extent of coupling was monitored by taking samples of the reaction mixture, at various times, followed by analysis by RP-HPLC.
Approximately 90-95% of the initial peptide is found to be bound covalently to the resin after 24 hours. The derivatized resin is incubated with 0.1 M Tris, pH 8.5 to block any sites of the resin that are still reactive, and is then packed in a glass column 100 x 0.6 cm I.D. with a variable piston (OMNIFIT, Cat. No. 006CC-06-10-FF).
For the purification of immunoglobulins from serum, the column was equilibrated with a buffer 50 mM Bis-Tris (Sigma, Cat. No. B9754), pH 6.5, to a flow of 1 ml/min, monitoring the eluent at 280 nm. Raw rabbit serum (Sigma, Cat, No. R9133) was loaded in the column and, after elution of the material that was not bound, the eluent was changed to acetic acid 0.1 M, pH 3.0, for elution of the adsorbed material. […]

[2] = system: female mice of the Balb/c strain; format: in vivo, mouse
Procedure: Active cutaneous anaphylaxis on the mouse ear was induced according to the procedure described by Inagaki et al., Japan. J. Pharmacol. 1992, 59:201-208. Female mice of the Balb/c strain were immunized with the ovalbumin antigen in the presence of the adjuvant aluminium hydroxide gel (alum). The immunizations were carried out by intraperitoneal administration of 25 µg of ovalbumin and 1 mg of alum dissolved in 200 µl of PBS. A control group received intraperitoneal injections that only contained 1 mg of alum dissolved in 200 µl of PBS. […] After 30 minutes, the appearance, on the mouse ear, of stained areas in the dermis, with extent and intensity of staining proportional to the quantity of allergen injected, was observed. […] The sample was then stirred and filtered, and finally the amount of dye was determined with a spectrophotometer, taking readings at 620 nm. […] Extraction and quantification of the Evans Blue dye, discharged in the local inflammatory reaction, were carried out as described previously.

“(H-L-Cys(p-MeOBzl)-D-Arg-D-Thr-D-Tyr)4-L-Lys2-L-Lys-L-Lys-OH [Peptide IB]” was tested, and the “retention of immunoglobulins by the peptide column” value [1] was “able to retain the immunoglobulin fraction of the raw serum”, the “Inhibition of skin reaction (%)” value ([2]; Dose of Peptide 100 mg/kg intraperitoneally, 30 minutes before ovalbumin) was 100% and the “activity greater than the activity of the comparative peptide” value ([2]; mouse ear active cutaneous anaphylaxis) was “approx. 15 times”.
